Earlier results in patent US10799486B2 (NORTIC HOLDINGS INC., priority 2016, dated 2020).

Key:
[1] = oral administration
[2] = nimodipine-treated subarachnoid hemorrhage (SAH) patients

## COCCOC(=O)C1=C(C)NC(C)=C(C(=O)OC(C)C)C1c1cccc([N+](=O)[O-])c1 (stereo not drawn) [nimodipine, isopropyl 2-methoxyethyl 1,4-dihydro-2,6-dimethyl-4-(m-nitrophenyl)-3,5-pyridinedicarboxylate]
[1]; man
  half-life equivalent to earlier elimination rates: 1 to 2 h
[1]; hepatic cirrhosis
  Cmax in patients with hepatic cirrhosis versus normal: approximately double that in normal
[2]
  concentration detected in the cerebrospinal fluid: ≤ 12.5 ng/mL
